Experimental data as given in patent US6936628B2, “Oral administration of epothilones” (Bristol-Myers Squibb Company, priority 2002, dated 2005).

Tests used:
[1] = test system: Pat-7 human ovarian carcinoma; conditions: Balb/c nu/nu, mouse, in vivo, iv
CYP3A4 = CYP3A4 (Homo sapiens, UniProt P08684); assay: Inhibition of human CYP enzymes, CYP3A4
[2] = test system: panel of tumor cell lines; assay: In vitro cytotoxicity assay (MTS), panel of tumor cell lines; assay type: cell-based; conditions: Homo sapiens; 7 of the 8 cell lines tested, 72-hour incubation
[3] = Microsomal incubation, human; conditions: human liver microsomes + NADPH, 20 μM
[4] = test system: sc Pat-7 human ovarian carcinoma; assay: Minimum effective infusional dose regimen versus sc Pat-7; assay type: in vivo, mice; conditions: constant-rate IV infusion over 10 hr
[5] = test system: Pat-26 human pancreatic carcinoma; conditions: mouse, in vivo
HCT116/VM46 cells = assay: In vitro cytotoxicity assay (MTS), HCT116/VM46; assay type: cell-based, human; conditions: Homo sapiens, HCT-116/VM46; HCT116/VM46 (MDR colon line), 72-hour incubation
[6] = Water solubility (statement); assay type: physicochemical
Experimental: For these reasons Compound A may be formulated in an entirely aqueous excipient system for parenteral administration. To determine whether differences in the dosing vehicle may affect the antitumor activity of Compound A, a direct head-to-head comparison of the antitumor efficacy of Compound A formulated in either cremophor/ethanol/water (10:10:80, v/v/v) or sodium acetate buffer (30 mM, pH 5.0) was conducted. No formulation related effect was observed.

[7] = Stability of aqueous solution (time for 5% drug loss, t95); assay type: physicochemical; conditions: 37° C.
[8] = Microsomal incubation, rat; conditions: rat liver microsomes + NADPH, 20 μM
in vivo = conditions: Balb/c nu/nu, mouse, po
CYP1A2 = target: T1, CYP1A2 (Homo sapiens, UniProt P05177); assay: Inhibition of human CYP enzymes, CYP1A2
T1 sequence (P05177 1-516): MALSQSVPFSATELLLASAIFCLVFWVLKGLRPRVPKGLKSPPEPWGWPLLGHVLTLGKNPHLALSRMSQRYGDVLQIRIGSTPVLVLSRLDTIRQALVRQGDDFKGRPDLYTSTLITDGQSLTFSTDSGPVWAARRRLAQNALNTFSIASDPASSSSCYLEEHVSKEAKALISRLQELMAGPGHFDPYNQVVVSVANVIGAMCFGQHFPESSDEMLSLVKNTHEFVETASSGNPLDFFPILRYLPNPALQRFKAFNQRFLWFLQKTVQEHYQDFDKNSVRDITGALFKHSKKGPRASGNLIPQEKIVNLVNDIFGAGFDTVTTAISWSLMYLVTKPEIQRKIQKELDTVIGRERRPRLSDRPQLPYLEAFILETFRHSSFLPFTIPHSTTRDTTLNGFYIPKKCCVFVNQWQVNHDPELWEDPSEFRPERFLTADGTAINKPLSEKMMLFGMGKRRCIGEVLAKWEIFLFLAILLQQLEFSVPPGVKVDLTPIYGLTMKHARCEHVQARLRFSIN

[9] = Stability in dog EDTA plasma and whole blood; assay type: in vitro ADME
Experimental: Plasma samples from exploratory pharmacokinetic studies were analyzed for Compound A concentrations using an LC/MS/MS assay with a standard curve range of 3.9 to 2000 ng/mL. In pharmacodynamic studies, Compound A concentrations were determined using an LC/MS/MS assay with a standard curve range of 10-40000 nM (5.23-20920 ng/mL) in mouse plasma. For toxicology studies, validated LC/MS/MS assays were used to determine the concentrations of Compound A in rat and dog plasma. Analytical data management for the validated assays was carried out using Watson®. The standard curve range for the validated assay in both matrices was 2 to 500 ng/mL of Compound A. The coefficient of variation for the inter- and intra-assay precision in rat and dog plasma was within 9% and the accuracy was greater than 92%. […] Compound A was stable for at least 4 months at !20EC and through at least 3 freeze-thaw cycles in rat and dog EDTA plasma. In addition, Compound A was stable in fresh rat and dog EDTA whole blood for at least 1 h at 4EC.

[10] = Liver S9 incubation, mouse; conditions: mouse liver S9, 20 μM
[11] = target: T2, HERG (IKr) potassium channel (Homo sapiens, UniProt Q12809); assay: HERG (IKr current) assay; assay type: cell-based; conditions: 30 μM, HEK293 cells transfected with HERG
T2 construct: expressed in transfected cells; host or cells: HEK293
Experimental: (§1) Human embryonic kidney (HEK293) cells stably transfected with the human ether-a-go-go related gene (HERG) cDNA were utilized in the HERG assay. Rabbit Purkinje fibres were used for the Purkinje-fibre action potential assay^7.
In a non-GLP study^7, Compound A was evaluated for effects on potassium channel current at concentrations of 10 and 30 μM. The human ether-a-go-go related gene (HERG) encodes the rapidly activating delayed-rectifier potassium channel (IKr) in heart. […] Based on the findings, it is unlikely that Compound A would cause IKr-mediated increases in the QT interval at anticipated therapeutic plasma concentrations.

Liver S9 incubation, dog = conditions: dog liver S9, 20 μM
[12] = Effects of formulation on antitumor efficacy; assay type: in vivo
[13] = Microsomal incubation, mouse; conditions: mouse liver microsomes + NADPH, 20 μM
rabbit Purkinje fiber = assay: Rabbit Purkinje-fiber action potential model; assay type: cell-based; conditions: 30 μM
Experimental: as §1
In a non-GLP study^7, Compound A, at concentrations of 3, 10 and 30 μM, was evaluated in an in vitro rabbit Purkinje fiber model. This model was developed to determine if a compound would affect the action-potential duration of the Purkinje fiber or other action-potential parameters. […] Based on these findings, Compound A is unlikely to provoke clinically relevant electrocardiographic effects in vivo.

T2 sequence (Q12809 whole entry): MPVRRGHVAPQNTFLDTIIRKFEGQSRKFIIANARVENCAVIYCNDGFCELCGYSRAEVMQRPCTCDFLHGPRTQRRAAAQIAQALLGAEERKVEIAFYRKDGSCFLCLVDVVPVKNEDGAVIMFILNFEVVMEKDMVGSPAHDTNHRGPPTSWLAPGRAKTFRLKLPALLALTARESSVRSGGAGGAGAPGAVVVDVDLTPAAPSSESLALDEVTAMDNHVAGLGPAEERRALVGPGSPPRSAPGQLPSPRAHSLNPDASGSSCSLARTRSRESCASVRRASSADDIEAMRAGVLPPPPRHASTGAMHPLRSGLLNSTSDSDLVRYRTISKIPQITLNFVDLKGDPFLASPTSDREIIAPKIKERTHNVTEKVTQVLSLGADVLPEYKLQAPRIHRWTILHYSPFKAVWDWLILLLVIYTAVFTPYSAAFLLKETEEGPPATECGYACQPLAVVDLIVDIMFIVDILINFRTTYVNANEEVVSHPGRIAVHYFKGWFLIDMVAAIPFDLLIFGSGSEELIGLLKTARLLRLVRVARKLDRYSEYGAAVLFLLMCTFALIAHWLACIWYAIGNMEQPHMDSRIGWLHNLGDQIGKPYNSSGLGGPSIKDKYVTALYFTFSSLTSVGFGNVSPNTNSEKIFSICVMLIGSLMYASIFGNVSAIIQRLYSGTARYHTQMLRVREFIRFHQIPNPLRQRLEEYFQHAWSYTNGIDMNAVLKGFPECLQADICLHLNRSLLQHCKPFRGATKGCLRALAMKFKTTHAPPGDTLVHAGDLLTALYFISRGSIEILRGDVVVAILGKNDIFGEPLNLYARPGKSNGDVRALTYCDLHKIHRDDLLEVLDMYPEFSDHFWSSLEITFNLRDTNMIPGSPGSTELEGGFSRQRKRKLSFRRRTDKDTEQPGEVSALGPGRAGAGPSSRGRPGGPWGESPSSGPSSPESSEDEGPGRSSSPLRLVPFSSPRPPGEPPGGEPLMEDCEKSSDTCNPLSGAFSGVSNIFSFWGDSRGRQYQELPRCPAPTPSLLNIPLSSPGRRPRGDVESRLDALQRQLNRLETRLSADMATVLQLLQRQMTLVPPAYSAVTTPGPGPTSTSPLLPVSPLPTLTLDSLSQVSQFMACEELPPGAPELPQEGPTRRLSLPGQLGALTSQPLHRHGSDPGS
Sequence of CYP3A4 (P08684 whole entry): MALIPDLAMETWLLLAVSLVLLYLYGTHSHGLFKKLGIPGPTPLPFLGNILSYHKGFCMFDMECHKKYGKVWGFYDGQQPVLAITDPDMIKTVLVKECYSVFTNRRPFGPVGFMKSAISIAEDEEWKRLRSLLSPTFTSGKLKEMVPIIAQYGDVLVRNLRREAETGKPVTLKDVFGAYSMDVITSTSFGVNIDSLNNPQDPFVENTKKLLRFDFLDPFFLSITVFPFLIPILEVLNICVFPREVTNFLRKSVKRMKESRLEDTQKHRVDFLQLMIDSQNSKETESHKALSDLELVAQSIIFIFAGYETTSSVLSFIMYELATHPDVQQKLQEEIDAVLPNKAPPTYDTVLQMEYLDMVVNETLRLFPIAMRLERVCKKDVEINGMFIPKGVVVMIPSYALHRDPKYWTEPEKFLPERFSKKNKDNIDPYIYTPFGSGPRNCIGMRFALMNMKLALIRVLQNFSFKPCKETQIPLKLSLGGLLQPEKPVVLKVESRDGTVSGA

For `C/C(=C\c1csc(CN)n1)[C@@H]1C[C@@H]2O[C@]2(C)CCC[C@H](C)[C@H](O)[C@@H](C)C(=O)C(C)(C)[C@@H](O)CC(=O)O1` (relative stereo) [Compound A, [1S-[1R*,3R*(E),7R*,10S*,11R*,12R*,16S*]]-3-[2-[2-(aminomethyl)-4-thiazolyl]-1-methylethenyl]-7,11-dihydroxy-8,8,10,12,16-pentamethyl-4,17-dioxabicyclo[14.1.0]heptadecane-5,9-dione], the “OD (optimal dose or maximum tolerated dose)” value [1] was 8 mg/kg, the IC50 (CYP3A4) was 7100 nM and the IC50 [2] was 0.9 to 3.5 nM. The “rate of oxidative metabolism” value [3] was 0.21 mmol/min/mg protein, the “Tumor growth delay equivalent to LCK” value ([4]; 2 mg/kg) was 0.1 and the “Tumor growth delay equivalent to LCK” value ([4]; 4 mg/kg) was 0.7. For the same molecule, the “Tumor growth delay equivalent to LCK” value ([4]; 8 mg/kg) was 1.1, the “Tumor growth delay equivalent to LCK” value ([4]; 16 mg/kg) was 1.7 and the MTD [5] was 10 mg/kg/inj. The “LCK (gross log cell kill)” value ([5]; iv) was 1.2, the IC50 (HCT116/VM46 cells) was 11.9 nM and the water solubility [6] was “highly water-soluble”. The “time for 5% drug loss (t95)” value ([7]; pH 2.5) was < 0.2 h, the “time for 5% drug loss (t95)” value ([7]; pH 7) was “approximately 14 h” and the “rate of oxidative metabolism” value [8] was 0.05 mmol/min/mg protein. The MTD (in vivo) was 90 mg/kg, the IC50 (CYP1A2) was > 70000 nM and the “stable through freeze-thaw cycles” value ([9]; dog EDTA plasma) was “at least 3 freeze-thaw cycles”. For the same molecule, the “stable in plasma prior to processing” value ([9]; dog EDTA plasma, 4EC) was “at least 4 h”, the “stable in frozen plasma” value ([9]; dog EDTA plasma, !20EC) was “at least 4 months” and the “stable in fresh whole blood” value ([9]; dog EDTA whole blood, 4EC) was “at least 1 h”. The “stable in an autosampler after processing” value ([9]; dog plasma samples, 4EC) was “at least 5 days”, the “rate of oxidative metabolism” value [10] was 0.06 and the “maximum inhibition of IKr current” value [11] was 13.5%. The “rate of oxidative metabolism” value (Liver S9 incubation, dog) was 0.03, the LCK ([12]; formulated in cremophor/ethanol/water (10:10:80, v/v/v)) was 3.3 and the LCK ([12]; formulated in sodium acetate buffer (30 mM, pH 5.0)) was 3.4. For the same molecule, the “rate of oxidative metabolism” value [13] was 0.3 and the “decrease of Purkinje fiber APD90” value (rabbit Purkinje fiber) was “less than 10%”.
